Laboratory results: PMC7588595, “Small-molecule active pharmaceutical ingredients of approved cancer therapeutics inhibit human aspartate/asparagine-β-hydroxylase” (Bioorganic & Medicinal Chemistry, 2020)

Target: T1, human AspH (His6-AspH315–758) (Homo sapiens, UniProt Q12797)
T1 construct: N-Terminally His6-tagged human AspH315–758 (His6-AspH315–758) was produced in Escherichia coli BL21 (DE3) cells; made in house; host or cells: Escherichia coli BL21 (DE3), pET-28a(+) vector
T1 sequence (Q12797 315-758): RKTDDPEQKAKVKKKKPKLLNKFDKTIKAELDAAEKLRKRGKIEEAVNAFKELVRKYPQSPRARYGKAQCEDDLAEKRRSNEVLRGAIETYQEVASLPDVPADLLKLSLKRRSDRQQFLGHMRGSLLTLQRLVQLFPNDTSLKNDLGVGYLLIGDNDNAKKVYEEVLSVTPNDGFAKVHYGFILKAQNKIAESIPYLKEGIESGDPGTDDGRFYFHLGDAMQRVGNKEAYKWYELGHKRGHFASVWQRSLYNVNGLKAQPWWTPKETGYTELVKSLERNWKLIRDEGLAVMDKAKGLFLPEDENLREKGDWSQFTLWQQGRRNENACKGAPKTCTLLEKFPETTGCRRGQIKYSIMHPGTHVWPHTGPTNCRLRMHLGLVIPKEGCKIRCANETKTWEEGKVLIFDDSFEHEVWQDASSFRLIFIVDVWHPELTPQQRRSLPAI
Assay: SPE-MS AspH inhibition assay (hFX-CP101-119 substrate hydroxylation)
Format: biochemical
Settings: 50 nM His6-AspH315–758, 1 μM hFX-CP101–119, 100 μM LAA, 3 μM 2OG, 2 μM FAS, 50 mM HEPES pH 7.5, 20 °C; read-out: IC50

`CO[C@@H]1[C@H](N(C)C(=O)c2ccccc2)C[C@H]2O[C@]1(C)n1c3ccccc3c3c4c(c5c6ccccc6n2c5c31)C(=O)NC4` [Midostaurin, reference compound] gave an IC50 of 9.43 ± 3.07 µM.

Same assay, conditions: AspH-inhibitor screening, 384-well Plate 1

Compared with `COc1cc2nccc(Oc3ccc(NC(=O)NC4CC4)c(Cl)c3)c2cc1C(N)=O` [Lenvatinib], `COCCNCc1ccc(-c2cc3nccc(Oc4ccc(NC(=S)NC(=O)Cc5ccc(F)cc5)cc4F)c3s2)nc1` [MGCD-265] is higher in “Plate 1 (% inhibition)” value: -19.98% for the first, 74.52% for the second.

First: C[C@]12O[C@H](C[C@]1(O)CO)n1c3ccccc3c3c4c(c5c6ccccc6n2c5c31)CNC4=O [Lestaurtinib]
Second: NC1(c2ccc(-c3nc4ccn5c(=O)[nH]nc5c4cc3-c3ccccc3)cc2)CCC1 [MK-2206]
The “Plate 1 (% inhibition)” value of the first is higher: 20.36% for the first, -21.29% for the second.

First: N#Cc1ccc(C(c2ccc(C#N)cc2)n2cncn2)cc1 [Letrozole]
Second: Cl.NC(=O)c1cccc2cn(-c3ccc([C@@H]4CCCNC4)cc3)nc12 [MK-4827, HCl salt]
The “Plate 1 (% inhibition)” value of the first is lower: 6.85% for the first, 7.39% for the second.

First: Nc1nc(OCc2cc(Br)cs2)c2[nH]cnc2n1 [Lomeguatrib]
Second: Nc1ccccc1NC(=O)c1ccc(CNc2nccc(-c3cccnc3)n2)cc1 [MGCD0103_Mocetinostat]
The “Plate 1 (% inhibition)” value of the first is higher: 5.31% for the first, 4.45% for the second.

First: O=NN(CCCl)C(=O)NC1CCCCC1 [Lomustine]
Second: O=C(O)CC[C@H]1CC[C@@](c2cc(F)ccc2F)(S(=O)(=O)c2ccc(Cl)cc2)CC1 [MK-0752]
The “Plate 1 (% inhibition)” value of the first is lower: 9.88% for the first, 11.87% for the second.

First: CNC(=O)c1ccc(N2C(=S)N(c3ccc(C#N)c(C(F)(F)F)c3)C(=O)C2(C)C)cc1F [MDV3100_Enzaluamide]
Second: C=CCn1c(=O)c2cnc(Nc3ccc(N4CCN(C)CC4)cc3)nc2n1-c1cccc(C(C)(C)O)n1 [MK1775]
The “Plate 1 (% inhibition)” value of the first is lower: -7.19% for the first, 5.75% for the second.

With `NS(=O)(=O)OC[C@@H]1C[C@@H](n2ccc3c(N[C@H]4CCc5ccccc54)ncnc32)C[C@@H]1O` [MLN4924] the “Plate 1 (% inhibition)” value was 2.38%.

Same assay, conditions: AspH-inhibitor screening, 384-well Plate 1, substrate conversion

Going from `COc1cc2nccc(Oc3ccc(NC(=O)NC4CC4)c(Cl)c3)c2cc1C(N)=O` [Lenvatinib] to `COCCNCc1ccc(-c2cc3nccc(Oc4ccc(NC(=S)NC(=O)Cc5ccc(F)cc5)cc4F)c3s2)nc1` [MGCD-265], the “Plate 1 (% conversion)” value falls from 58.98% to 15.34%.

Compared with `C[C@]12O[C@H](C[C@]1(O)CO)n1c3ccccc3c3c4c(c5c6ccccc6n2c5c31)CNC4=O` [Lestaurtinib], `NC1(c2ccc(-c3nc4ccn5c(=O)[nH]nc5c4cc3-c3ccccc3)cc2)CCC1` [MK-2206] is higher in “Plate 1 (% conversion)” value: 40.35% for the first, 59.58% for the second.

First: N#Cc1ccc(C(c2ccc(C#N)cc2)n2cncn2)cc1 [Letrozole]
Second: Cl.NC(=O)c1cccc2cn(-c3ccc([C@@H]4CCCNC4)cc3)nc12 [MK-4827, HCl salt]
The “Plate 1 (% conversion)” value of the first is higher: 46.59% for the first, 46.34% for the second.

Going from `Nc1nc(OCc2cc(Br)cs2)c2[nH]cnc2n1` [Lomeguatrib] to `Nc1ccccc1NC(=O)c1ccc(CNc2nccc(-c3cccnc3)n2)cc1` [MGCD0103_Mocetinostat], the “Plate 1 (% conversion)” value rises from 47.30% to 47.69%.

Going from `O=NN(CCCl)C(=O)NC1CCCCC1` [Lomustine] to `O=C(O)CC[C@H]1CC[C@@](c2cc(F)ccc2F)(S(=O)(=O)c2ccc(Cl)cc2)CC1` [MK-0752], the “Plate 1 (% conversion)” value falls from 45.19% to 44.27%.

Going from `CNC(=O)c1ccc(N2C(=S)N(c3ccc(C#N)c(C(F)(F)F)c3)C(=O)C2(C)C)cc1F` [MDV3100_Enzaluamide] to `C=CCn1c(=O)c2cnc(Nc3ccc(N4CCN(C)CC4)cc3)nc2n1-c1cccc(C(C)(C)O)n1` [MK1775], the “Plate 1 (% conversion)” value falls from 53.07% to 47.09%.

`NS(=O)(=O)OC[C@@H]1C[C@@H](n2ccc3c(N[C@H]4CCc5ccccc54)ncnc32)C[C@@H]1O` [MLN4924] was tested, and the “Plate 1 (% conversion)” value was 48.65%.

Same assay, conditions: AspH-inhibitor screening, Plate 1-duplicate

Going from `COc1cc2nccc(Oc3ccc(NC(=O)NC4CC4)c(Cl)c3)c2cc1C(N)=O` [Lenvatinib] to `COCCNCc1ccc(-c2cc3nccc(Oc4ccc(NC(=S)NC(=O)Cc5ccc(F)cc5)cc4F)c3s2)nc1` [MGCD-265], the “Plate 1-duplicate (% inhibition)” value rises from -15.77% to 67.97%.

First: C[C@]12O[C@H](C[C@]1(O)CO)n1c3ccccc3c3c4c(c5c6ccccc6n2c5c31)CNC4=O [Lestaurtinib]
Second: NC1(c2ccc(-c3nc4ccn5c(=O)[nH]nc5c4cc3-c3ccccc3)cc2)CCC1 [MK-2206]
The “Plate 1-duplicate (% inhibition)” value of the first is higher: 16.08% for the first, -13.95% for the second.

Going from `N#Cc1ccc(C(c2ccc(C#N)cc2)n2cncn2)cc1` [Letrozole] to `Cl.NC(=O)c1cccc2cn(-c3ccc([C@@H]4CCCNC4)cc3)nc12` [MK-4827, HCl salt], the “Plate 1-duplicate (% inhibition)” value rises from 3.67% to 9.73%.

First: Nc1nc(OCc2cc(Br)cs2)c2[nH]cnc2n1 [Lomeguatrib]
Second: Nc1ccccc1NC(=O)c1ccc(CNc2nccc(-c3cccnc3)n2)cc1 [MGCD0103_Mocetinostat]
The “Plate 1-duplicate (% inhibition)” value of the first is higher: 8.11% for the first, 6.61% for the second.

Going from `O=NN(CCCl)C(=O)NC1CCCCC1` [Lomustine] to `O=C(O)CC[C@H]1CC[C@@](c2cc(F)ccc2F)(S(=O)(=O)c2ccc(Cl)cc2)CC1` [MK-0752], the “Plate 1-duplicate (% inhibition)” value rises from 8.61% to 9.89%.

First: CNC(=O)c1ccc(N2C(=S)N(c3ccc(C#N)c(C(F)(F)F)c3)C(=O)C2(C)C)cc1F [MDV3100_Enzaluamide]
Second: C=CCn1c(=O)c2cnc(Nc3ccc(N4CCN(C)CC4)cc3)nc2n1-c1cccc(C(C)(C)O)n1 [MK1775]
The “Plate 1-duplicate (% inhibition)” value of the first is lower: -12.48% for the first, 1.85% for the second.

For `NS(=O)(=O)OC[C@@H]1C[C@@H](n2ccc3c(N[C@H]4CCc5ccccc54)ncnc32)C[C@@H]1O` [MLN4924], the “Plate 1-duplicate (% inhibition)” value was -0.45%.

Same assay, conditions: AspH-inhibitor screening, Plate 1-duplicate, substrate conversion

Compared with `COc1cc2nccc(Oc3ccc(NC(=O)NC4CC4)c(Cl)c3)c2cc1C(N)=O` [Lenvatinib], `COCCNCc1ccc(-c2cc3nccc(Oc4ccc(NC(=S)NC(=O)Cc5ccc(F)cc5)cc4F)c3s2)nc1` [MGCD-265] is lower in “Plate 1-duplicate (% conversion)” value: 59.86% for the first, 18.33% for the second.

Going from `C[C@]12O[C@H](C[C@]1(O)CO)n1c3ccccc3c3c4c(c5c6ccccc6n2c5c31)CNC4=O` [Lestaurtinib] to `NC1(c2ccc(-c3nc4ccn5c(=O)[nH]nc5c4cc3-c3ccccc3)cc2)CCC1` [MK-2206], the “Plate 1-duplicate (% conversion)” value rises from 44.07% to 58.96%.

Compared with `N#Cc1ccc(C(c2ccc(C#N)cc2)n2cncn2)cc1` [Letrozole], `Cl.NC(=O)c1cccc2cn(-c3ccc([C@@H]4CCCNC4)cc3)nc12` [MK-4827, HCl salt] is lower in “Plate 1-duplicate (% conversion)” value: 50.22% for the first, 47.22% for the second.

Going from `Nc1nc(OCc2cc(Br)cs2)c2[nH]cnc2n1` [Lomeguatrib] to `Nc1ccccc1NC(=O)c1ccc(CNc2nccc(-c3cccnc3)n2)cc1` [MGCD0103_Mocetinostat], the “Plate 1-duplicate (% conversion)” value rises from 48.02% to 48.76%.

First: O=NN(CCCl)C(=O)NC1CCCCC1 [Lomustine]
Second: O=C(O)CC[C@H]1CC[C@@](c2cc(F)ccc2F)(S(=O)(=O)c2ccc(Cl)cc2)CC1 [MK-0752]
The “Plate 1-duplicate (% conversion)” value of the first is higher: 47.77% for the first, 47.14% for the second.

Going from `CNC(=O)c1ccc(N2C(=S)N(c3ccc(C#N)c(C(F)(F)F)c3)C(=O)C2(C)C)cc1F` [MDV3100_Enzaluamide] to `C=CCn1c(=O)c2cnc(Nc3ccc(N4CCN(C)CC4)cc3)nc2n1-c1cccc(C(C)(C)O)n1` [MK1775], the “Plate 1-duplicate (% conversion)” value falls from 58.23% to 51.12%.

In the case of `NS(=O)(=O)OC[C@@H]1C[C@@H](n2ccc3c(N[C@H]4CCc5ccccc54)ncnc32)C[C@@H]1O` [MLN4924], the “Plate 1-duplicate (% conversion)” value is reported as 52.27%.

Same assay, conditions: read-out: IC50 at 10 μM substrate; 10 μM hFX-CP101–119 and 10 μM 2OG instead of 1 μM hFX-CP101–119 and 3 μM 2OG

`CO[C@@H]1[C@H](N(C)C(=O)c2ccccc2)C[C@H]2O[C@]1(C)n1c3ccccc3c3c4c(c5c6ccccc6n2c5c31)C(=O)NC4` [Midostaurin, reference compound] showed an IC50 of 6.02 ± 1.32 µM.

Same assay, conditions: read-out: IC50 at 20 μM Fe(II); 20 μM Fe(II) instead of 2 μM Fe(II)

With `CO[C@@H]1[C@H](N(C)C(=O)c2ccccc2)C[C@H]2O[C@]1(C)n1c3ccccc3c3c4c(c5c6ccccc6n2c5c31)C(=O)NC4` [Midostaurin, reference compound] the IC50 was 7.28 ± 0.9 µM.

Same assay, conditions: read-out: IC50 at 200 μM 2OG; 200 μM 2OG instead of 3 μM 2OG

`CO[C@@H]1[C@H](N(C)C(=O)c2ccccc2)C[C@H]2O[C@]1(C)n1c3ccccc3c3c4c(c5c6ccccc6n2c5c31)C(=O)NC4` [Midostaurin, reference compound] was tested, and the IC50 was 12.4 ± 2.9 µM.
